Where a SMILES comes first, the peptide text is derived from it. Bridges are numbered along the chain shown (N, C = ends). [ ]: non-standard residue; d: D form. The star is where a group is joined. hPhe(3-Cl-4-CF3) = N[C@@H](CCc1ccc(C(F)(F)F)c(Cl)c1)C(=O)O; NPrPhe(4-CF3) = CCCN[C@@H](Cc1ccc(C(F)(F)F)cc1)C(=O)O; NMeGly(cPent) = CN[C@H](C(=O)O)C1CCCC1; NMeD = CN[C@@H](CC(=O)O)C(=O)O; NMeL = CN[C@@H](CC(C)C)C(=O)O; Morpholide = C1CN(*)CCO1; Ac5c = NC1(C(=O)O)CCCC1; Abu = CC[C@H](N)C(=O)O; NEtG = CCNCC(=O)O; Sar = CNCC(=O)O
Assays:
[1] = molecular target: GDP-bound HRAS wild-type protein (Homo sapiens, UniProt P01112); experiment: Binding to HRAS by surface plasmon resonance (SPR), Single Cycle Kinetics; details: for HRAS/KRAS (ratio of KD value for HRAS to KD value for KRAS) / HRAS/KRAS (ratio of KD value with respect to HRAS to KD value with respect to KRAS): GDP-bound HRAS wild-type vs GDP-bound KRAS wild-type
[2] = molecular target: GDP-bound NRAS wild-type protein (Homo sapiens, UniProt P01111); experiment: Binding to NRAS by surface plasmon resonance (SPR), Single Cycle Kinetics; details: for NRAS/KRAS (ratio of KD value for NRAS to KD value for KRAS) / NRAS/KRAS (ratio of KD value with respect to NRAS to KD value with respect to KRAS): GDP-bound NRAS wild-type vs GDP-bound KRAS wild-type
GDP-bound NRAS wild-type protein, sequence (P01111 whole entry): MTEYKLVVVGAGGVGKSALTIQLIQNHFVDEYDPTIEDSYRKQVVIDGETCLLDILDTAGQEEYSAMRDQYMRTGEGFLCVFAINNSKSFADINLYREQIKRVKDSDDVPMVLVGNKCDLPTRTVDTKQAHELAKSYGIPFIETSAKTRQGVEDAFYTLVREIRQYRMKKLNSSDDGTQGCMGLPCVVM

GDP-bound HRAS wild-type protein, sequence (P01112 whole entry): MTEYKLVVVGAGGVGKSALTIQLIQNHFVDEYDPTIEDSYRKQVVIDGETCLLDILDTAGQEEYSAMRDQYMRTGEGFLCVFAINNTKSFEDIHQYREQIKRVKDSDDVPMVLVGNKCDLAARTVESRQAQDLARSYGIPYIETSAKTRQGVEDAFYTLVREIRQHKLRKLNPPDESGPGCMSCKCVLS

Row | SMILES | HRAS/KRAS (ratio of KD value for HRAS to KD value for KRAS) ([1]; SPR) | NRAS/KRAS (ratio of KD value for NRAS to KD value for KRAS) ([2]; SPR) | HRAS/KRAS (ratio of KD value with respect to HRAS to KD value with respect to KRAS) ([1]; SPR) | NRAS/KRAS (ratio of KD value with respect to NRAS to KD value with respect to KRAS) ([2]; SPR) | other results
1 | CCCN1C(=O)CN(C)C(=O)CN(CC)C(=O)[C@H](CC)NC(=O)[C@H](CC(C)C)N(C)C(=O)C[C@@H](C(=O)N2CCOCC2)N(C)C(=O)[C@H](C2CCCC2)N(C)C(=O)C2(CCCC2)NC(=O)[C@@H]2CCCN2C(=O)[C@H](CCc2ccc(C(F)(F)F)c(Cl)c2)NC(=O)CN(C)C(=O)[C@@H]1Cc1ccc(C(F)(F)F)cc1 [PP0290] ([NMeL][Abu][NEtG][Sar][NPrPhe(4-CF3)][Sar][hPhe(3-Cl-4-CF3)]P[Ac5c][NMeGly(cPent)][NMeD]-Morpholide; lactam N-11) |  |  |  |  | HRAS/KRAS (ratio of KD for GDP-bound HRAS wild-type to KD for KRAS) ([1]; KD ratio HRAS/KRAS, SPR): C (A compound having a KD ratio of 0.1 or more and less than 3 is denoted as C); NRAS/KRAS (ratio of KD for GDP-bound NRAS wild-type to KD for KRAS) ([2]; KD ratio NRAS/KRAS, SPR): B (a compound having 3 or more and less than 10 is denoted as B)
2 | CC[C@H](C)[C@@H]1NC(=O)[C@H](CC(C)C)N(C)C(=O)C[C@@H](C(=O)N(C)C)N(C)C(=O)[C@H](C2CCCC2)N(C)C(=O)C2(CC(C)(C)C2)NC(=O)CN(C)C(=O)[C@H](CCc2cc(F)c(C(F)(F)F)c(F)c2)NC(=O)CN(C)C(=O)[C@H](Cc2ccc(C(F)(F)F)cc2)N2CC/C=C\C[C@@H](C2=O)N(C)C(=O)CN(C)C1=O [PP1776] | A (a compound having 10 or more and less than 20 is denoted as A) | A (a compound having 10 or more and less than 20 is denoted as A) |  |  | 
3 | CCO[C@H]1CCN2C(=O)[C@H](CCc3cc(F)c(C(F)(F)F)c(F)c3)NC(=O)CN(C)C(=O)[C@H](Cc3ccc(C(F)(F)F)cc3)N3CCCC[C@@H](C3=O)N(C)C(=O)CN(C)C(=O)[C@H]([C@@H](C)CC)NC(=O)[C@H](CC(C)C)N(C)C(=O)C[C@@H](C(=O)N3CCOCC3)N(C)C(=O)[C@H](C3CCCC3)N(C)C(=O)C3(CCC3)NC(=O)[C@H]12 [PP1076] |  |  | B (a compound having 3 or more and less than 10 is denoted as B) | B (a compound having 3 or more and less than 10 is denoted as B) | 
4 | CCO[C@@H]1C[C@H]2C(=O)NC3(CCC3)C(=O)N(C)[C@@H](C3CCCC3)C(=O)N(C)[C@H](C(=O)N(C)C)CC(=O)N(C)[C@@H](CC)C(=O)N[C@@H]([C@@H](C)CC)C(=O)N(C)CC(=O)N(C)[C@H]3CCCCN(C3=O)[C@@H](Cc3ccc(C(F)(F)F)cc3)C(=O)N(C)CC(=O)N[C@@H](CCc3ccc(C(F)(F)F)cc3F)C(=O)N2C1 [PP0885] |  |  | B (a compound having 3 or more and less than 10 is denoted as B) | C (A compound having a KD ratio of 0.1 or more and less than 3 is denoted as C) | 
5 | CCO[C@@H]1C[C@H]2C(=O)NC3(CC(C)(C)C3)C(=O)N(C)[C@@H](C3CCCCC3)C(=O)N(C)[C@H](C(=O)N(C)C)CC(=O)N(C)[C@@H](CC)C(=O)N[C@@H]([C@@H](C)CC)C(=O)N(C)CC(=O)N(C)[C@H]3C/C=C\CCN(C3=O)[C@@H](Cc3ccc(C(F)(F)F)cc3)C(=O)N(C)CC(=O)N[C@@H](CCc3cc(F)c(C(F)(F)F)c(F)c3)C(=O)N2C1 [PP1942] | A (a compound having 10 or more and less than 20 is denoted as A) | AA (a compound having 20 or more is denoted as AA) |  |  | 
6 | CCC[C@H]1C(=O)N[C@@H]([C@@H](C)CC)C(=O)N(C)CC(=O)N(C)[C@H]2C/C=C\CCN(C2=O)[C@@H](Cc2ccc(C(F)(F)F)cc2)C(=O)N(C)CC(=O)N[C@@H](CCc2cc(F)c(C(F)F)c(F)c2)C(=O)N2C[C@H](OCC)C[C@H]2C(=O)NC2(CC(C)(C)C2)C(=O)N(C)[C@@H](C(CC)CC)C(=O)N(C)[C@H](C(=O)N(C)C)CC(=O)N1C [PP2781] |  |  |  |  | HRAS/KRAS (ratio of KD value with respect to GDP-bound HRAS wild-type protein to KD value with respect to KRAS) ([1]; KD ratio HRAS/KRAS, class symbols): A (a compound having 10 or more and less than 20 is denoted as A); NRAS/KRAS (ratio of KD value with respect to GDP-bound NRAS wild-type protein to KD value with respect to KRAS) ([2]; KD ratio NRAS/KRAS, class symbols): AA (a compound having 20 or more is denoted as AA)
7 | CC[C@H](C)[C@@H]1NC(=O)[C@H](C(C)C)N(C)C(=O)C[C@@H](C(=O)N(C)CC)N(C)C(=O)[C@H](C2CCCC2)N(C)C(=O)C2(CC(C)(C)C2)NC(=O)[C@@H]2C[C@H](C)CN2C(=O)[C@H](CCc2cc(F)c(C(F)(F)F)c(F)c2)NC(=O)CN(C)C(=O)[C@H](Cc2ccc(C(F)(F)F)cc2)N2CC/C=C\C[C@@H](C2=O)N(C)C(=O)CN(C)C1=O [PP1976] | A (a compound having 10 or more and less than 20 is denoted as A) | AA (a compound having 20 or more is denoted as AA) |  |  | 
8 | CCO[C@@H]1C[C@H]2C(=O)NC3(CCC3)C(=O)N(C)[C@@H](C3CCCC3)C(=O)N(C)[C@H](C(=O)N(C)C)CC(=O)N(C)[C@@H](CC(C)C)C(=O)N[C@@H]([C@@H](C)CC)C(=O)N3CC[C@H]3C(=O)N(C)[C@H]3C[C@@H](C)CCN(C3=O)[C@@H](Cc3ccc(C(F)(F)F)cc3)C(=O)N(C)CC(=O)N[C@@H](CCc3cc(F)c(C(F)(F)F)c(F)c3)C(=O)N2C1 [PP1019] |  |  | B (a compound having 3 or more and less than 10 is denoted as B) | C (A compound having a KD ratio of 0.1 or more and less than 3 is denoted as C) | 

Reference: patent publication US20250230193A1, “CYCLIC COMPOUND HAVING SELECTIVE KRAS INHIBITORY EFFECT ON HRAS AND NRAS” (CHUGAI SEIYAKU KABUSHIKI KAISHA, priority 2022, published 2025)
